Measured values published in publication PMC10641818, “Development of First-in-Class Dual Sirt2/HDAC6 Inhibitors as Molecular Tools for Dual Inhibition of Tubulin Deacetylation” (Journal of Medicinal Chemistry, 2023).

How the values were obtained:
[1] = target: HDAC9 (Homo sapiens, UniProt Q9UKV0); assay: HDAC9 continuous fluorescence deacylation assay; format: biochemical
[2] = target: T1, HDAC6 (Homo sapiens, UniProt Q9UBN7); assay: HDAC6 degradation rescue experiment with PROTAC B4 (62) in MCF-7 cells (western blot); format: cell-based; set-up: endogenous in cells; host or cells: MCF-7; conditions: 20 μM pretreatment 30 min, then 62 (1 or 10 μM) 6 h
T1 sequence (Q9UBN7 1-1215): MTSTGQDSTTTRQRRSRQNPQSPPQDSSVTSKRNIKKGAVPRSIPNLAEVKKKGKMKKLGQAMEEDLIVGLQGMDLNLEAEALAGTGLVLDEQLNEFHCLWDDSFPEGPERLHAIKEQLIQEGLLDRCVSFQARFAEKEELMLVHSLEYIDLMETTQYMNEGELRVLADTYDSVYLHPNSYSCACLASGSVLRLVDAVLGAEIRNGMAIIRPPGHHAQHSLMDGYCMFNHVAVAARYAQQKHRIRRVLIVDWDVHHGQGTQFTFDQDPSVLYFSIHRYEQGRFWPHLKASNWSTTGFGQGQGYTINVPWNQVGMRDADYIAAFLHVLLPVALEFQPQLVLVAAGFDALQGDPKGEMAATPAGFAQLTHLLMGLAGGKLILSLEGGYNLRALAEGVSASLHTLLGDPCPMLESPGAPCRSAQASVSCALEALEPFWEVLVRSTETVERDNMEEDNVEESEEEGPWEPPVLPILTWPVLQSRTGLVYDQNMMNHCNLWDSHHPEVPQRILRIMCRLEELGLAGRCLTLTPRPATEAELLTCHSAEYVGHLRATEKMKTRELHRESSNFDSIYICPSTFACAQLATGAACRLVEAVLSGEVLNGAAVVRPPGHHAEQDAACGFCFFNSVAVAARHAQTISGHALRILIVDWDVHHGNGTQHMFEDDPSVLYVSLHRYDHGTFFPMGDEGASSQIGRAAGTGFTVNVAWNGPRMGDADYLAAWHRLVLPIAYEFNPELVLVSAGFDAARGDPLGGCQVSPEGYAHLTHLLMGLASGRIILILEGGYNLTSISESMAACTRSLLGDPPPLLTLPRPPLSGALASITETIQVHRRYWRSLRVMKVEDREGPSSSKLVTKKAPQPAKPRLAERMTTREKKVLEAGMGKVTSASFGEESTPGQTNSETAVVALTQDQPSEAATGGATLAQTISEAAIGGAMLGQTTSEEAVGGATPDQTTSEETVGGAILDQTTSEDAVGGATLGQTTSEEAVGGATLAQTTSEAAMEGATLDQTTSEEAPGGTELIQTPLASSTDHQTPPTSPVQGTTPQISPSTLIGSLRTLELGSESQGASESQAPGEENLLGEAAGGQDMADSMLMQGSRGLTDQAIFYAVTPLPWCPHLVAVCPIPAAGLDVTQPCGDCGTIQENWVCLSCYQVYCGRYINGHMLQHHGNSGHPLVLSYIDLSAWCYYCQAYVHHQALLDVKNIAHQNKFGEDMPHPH

[3] = target: T2, HDAC3/NcoR2 (Homo sapiens, UniProt O15379); assay: HDAC3 in vitro deacetylation assay (ZMAL); format: biochemical; conditions: mean ± SD
T2 construct: purchased BPS Bioscience 50003

[4] = target: HDAC4 (Homo sapiens, UniProt P56524); assay: HDAC4 continuous fluorescence deacylation assay; format: biochemical
[5] = target: HDAC8 (Homo sapiens, UniProt Q9BY41); assay: HDAC8 in vitro deacylation assay (ZMTFAL); format: biochemical
[6] = target: Sirt6 (Homo sapiens, UniProt Q8N6T7); assay: Sirt6 in vitro deacylation HPLC assay; format: biochemical
[7] = target: T3, Sirt5 (Homo sapiens, UniProt Q9NXA8); assay: Sirt5 in vitro deacylation HPLC assay; format: biochemical
T3 sequence (Q9NXA8 37-310): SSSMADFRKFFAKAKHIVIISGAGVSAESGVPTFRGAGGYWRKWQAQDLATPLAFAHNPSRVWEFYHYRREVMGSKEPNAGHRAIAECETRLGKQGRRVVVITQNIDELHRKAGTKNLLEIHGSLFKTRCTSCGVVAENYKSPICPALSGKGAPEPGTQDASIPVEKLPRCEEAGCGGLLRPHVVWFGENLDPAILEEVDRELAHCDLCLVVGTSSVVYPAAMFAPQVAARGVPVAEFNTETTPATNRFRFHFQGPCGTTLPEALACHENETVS

[8] = target: T4, HDAC2 (Homo sapiens, UniProt Q92769); assay: HDAC2 in vitro deacetylation assay (ZMAL); format: biochemical; conditions: mean ± SD
T4 construct: purchased BPS Bioscience 50052

[9] = target: HDAC5 (Homo sapiens, UniProt Q9UQL6); assay: HDAC5 continuous fluorescence deacylation assay; format: biochemical
[10] = target: T5, HDAC10 (Homo sapiens, UniProt Q969S8); assay: HDAC10 continuous fluorescence deacylation assay; format: biochemical
T5 sequence (Q969S8 1-669): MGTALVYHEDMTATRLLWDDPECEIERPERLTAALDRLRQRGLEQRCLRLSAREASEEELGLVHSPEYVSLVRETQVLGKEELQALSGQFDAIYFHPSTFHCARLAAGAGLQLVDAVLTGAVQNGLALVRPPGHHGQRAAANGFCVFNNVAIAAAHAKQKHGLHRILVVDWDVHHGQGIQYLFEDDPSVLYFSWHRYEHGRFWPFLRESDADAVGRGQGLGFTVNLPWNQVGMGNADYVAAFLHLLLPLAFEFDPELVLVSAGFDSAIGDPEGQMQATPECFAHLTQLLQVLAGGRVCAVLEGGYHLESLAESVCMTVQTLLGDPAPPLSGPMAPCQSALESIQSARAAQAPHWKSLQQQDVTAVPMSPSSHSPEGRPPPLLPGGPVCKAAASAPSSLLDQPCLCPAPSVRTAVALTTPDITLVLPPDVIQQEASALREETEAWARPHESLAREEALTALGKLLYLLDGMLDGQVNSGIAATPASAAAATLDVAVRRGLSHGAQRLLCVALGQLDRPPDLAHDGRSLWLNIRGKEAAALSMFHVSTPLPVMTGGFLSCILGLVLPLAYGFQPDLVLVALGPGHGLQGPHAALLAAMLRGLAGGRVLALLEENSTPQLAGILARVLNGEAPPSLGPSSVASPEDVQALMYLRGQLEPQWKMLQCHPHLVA

Chain of HDAC4 (P56524 whole entry, species assumed): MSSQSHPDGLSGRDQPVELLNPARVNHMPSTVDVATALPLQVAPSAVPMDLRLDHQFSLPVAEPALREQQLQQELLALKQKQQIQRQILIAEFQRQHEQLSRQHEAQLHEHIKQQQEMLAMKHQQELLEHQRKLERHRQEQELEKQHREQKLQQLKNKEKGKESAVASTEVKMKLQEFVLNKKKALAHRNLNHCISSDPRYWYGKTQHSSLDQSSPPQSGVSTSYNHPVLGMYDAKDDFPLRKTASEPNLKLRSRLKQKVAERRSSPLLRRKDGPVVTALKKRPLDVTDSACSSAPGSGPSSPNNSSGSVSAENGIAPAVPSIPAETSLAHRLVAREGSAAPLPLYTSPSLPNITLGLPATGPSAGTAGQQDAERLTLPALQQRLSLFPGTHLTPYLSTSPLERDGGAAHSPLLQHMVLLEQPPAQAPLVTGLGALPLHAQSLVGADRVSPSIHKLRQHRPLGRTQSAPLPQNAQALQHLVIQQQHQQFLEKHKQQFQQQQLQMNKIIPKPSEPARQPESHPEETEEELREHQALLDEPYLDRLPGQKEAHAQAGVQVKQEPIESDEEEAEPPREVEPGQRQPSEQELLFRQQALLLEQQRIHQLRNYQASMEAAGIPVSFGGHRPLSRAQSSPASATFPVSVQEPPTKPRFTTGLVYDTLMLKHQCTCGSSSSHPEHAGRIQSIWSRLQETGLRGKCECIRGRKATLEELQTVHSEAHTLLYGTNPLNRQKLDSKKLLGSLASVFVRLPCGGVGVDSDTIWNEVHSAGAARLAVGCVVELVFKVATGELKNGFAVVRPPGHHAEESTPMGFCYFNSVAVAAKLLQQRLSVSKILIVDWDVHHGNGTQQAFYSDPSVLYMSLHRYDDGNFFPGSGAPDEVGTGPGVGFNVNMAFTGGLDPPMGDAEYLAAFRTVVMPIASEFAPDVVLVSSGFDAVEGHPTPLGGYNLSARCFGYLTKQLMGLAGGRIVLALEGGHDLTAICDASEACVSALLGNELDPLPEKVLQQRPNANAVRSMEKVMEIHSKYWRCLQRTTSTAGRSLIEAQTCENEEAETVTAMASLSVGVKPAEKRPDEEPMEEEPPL
Chain of Sirt6 (Q8N6T7 whole entry, species assumed): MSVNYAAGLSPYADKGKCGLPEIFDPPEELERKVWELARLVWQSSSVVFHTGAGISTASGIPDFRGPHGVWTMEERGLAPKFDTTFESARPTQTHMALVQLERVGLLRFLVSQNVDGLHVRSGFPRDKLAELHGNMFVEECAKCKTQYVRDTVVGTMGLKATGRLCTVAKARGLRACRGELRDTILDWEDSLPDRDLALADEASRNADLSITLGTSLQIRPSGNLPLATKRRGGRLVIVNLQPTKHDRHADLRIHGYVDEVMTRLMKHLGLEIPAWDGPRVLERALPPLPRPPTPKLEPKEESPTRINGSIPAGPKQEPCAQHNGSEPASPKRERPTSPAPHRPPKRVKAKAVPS
Chain of HDAC5 (Q9UQL6 whole entry, species assumed): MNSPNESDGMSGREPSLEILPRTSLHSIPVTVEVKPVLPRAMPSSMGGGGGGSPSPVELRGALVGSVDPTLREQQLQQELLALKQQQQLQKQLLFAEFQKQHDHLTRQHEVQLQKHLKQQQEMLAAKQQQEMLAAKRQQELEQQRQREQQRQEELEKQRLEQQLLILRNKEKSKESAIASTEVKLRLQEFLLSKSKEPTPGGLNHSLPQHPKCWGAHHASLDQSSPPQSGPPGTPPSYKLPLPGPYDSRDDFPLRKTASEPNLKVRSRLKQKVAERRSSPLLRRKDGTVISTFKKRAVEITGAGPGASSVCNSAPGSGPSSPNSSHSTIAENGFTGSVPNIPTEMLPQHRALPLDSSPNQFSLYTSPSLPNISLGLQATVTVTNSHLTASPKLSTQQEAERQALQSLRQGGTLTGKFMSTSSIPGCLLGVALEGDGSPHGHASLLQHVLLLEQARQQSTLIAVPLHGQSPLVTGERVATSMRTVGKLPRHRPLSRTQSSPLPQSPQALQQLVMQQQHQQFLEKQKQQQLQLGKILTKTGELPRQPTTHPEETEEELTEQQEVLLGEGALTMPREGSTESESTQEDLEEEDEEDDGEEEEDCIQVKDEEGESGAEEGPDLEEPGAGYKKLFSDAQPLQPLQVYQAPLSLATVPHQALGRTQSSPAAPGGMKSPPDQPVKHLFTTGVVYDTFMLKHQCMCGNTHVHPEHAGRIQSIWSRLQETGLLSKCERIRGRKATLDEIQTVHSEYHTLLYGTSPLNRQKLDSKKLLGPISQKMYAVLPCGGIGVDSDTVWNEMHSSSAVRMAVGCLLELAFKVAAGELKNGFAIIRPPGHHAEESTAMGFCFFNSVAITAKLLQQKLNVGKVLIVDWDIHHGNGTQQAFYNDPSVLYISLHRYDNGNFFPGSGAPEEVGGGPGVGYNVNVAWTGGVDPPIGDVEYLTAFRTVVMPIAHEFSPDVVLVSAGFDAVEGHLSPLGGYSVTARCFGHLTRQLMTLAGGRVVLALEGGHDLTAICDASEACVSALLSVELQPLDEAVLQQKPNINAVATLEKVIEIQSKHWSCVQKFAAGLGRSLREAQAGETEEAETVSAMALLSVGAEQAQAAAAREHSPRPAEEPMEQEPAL
Chain of HDAC9 (Q9UKV0 whole entry, species assumed): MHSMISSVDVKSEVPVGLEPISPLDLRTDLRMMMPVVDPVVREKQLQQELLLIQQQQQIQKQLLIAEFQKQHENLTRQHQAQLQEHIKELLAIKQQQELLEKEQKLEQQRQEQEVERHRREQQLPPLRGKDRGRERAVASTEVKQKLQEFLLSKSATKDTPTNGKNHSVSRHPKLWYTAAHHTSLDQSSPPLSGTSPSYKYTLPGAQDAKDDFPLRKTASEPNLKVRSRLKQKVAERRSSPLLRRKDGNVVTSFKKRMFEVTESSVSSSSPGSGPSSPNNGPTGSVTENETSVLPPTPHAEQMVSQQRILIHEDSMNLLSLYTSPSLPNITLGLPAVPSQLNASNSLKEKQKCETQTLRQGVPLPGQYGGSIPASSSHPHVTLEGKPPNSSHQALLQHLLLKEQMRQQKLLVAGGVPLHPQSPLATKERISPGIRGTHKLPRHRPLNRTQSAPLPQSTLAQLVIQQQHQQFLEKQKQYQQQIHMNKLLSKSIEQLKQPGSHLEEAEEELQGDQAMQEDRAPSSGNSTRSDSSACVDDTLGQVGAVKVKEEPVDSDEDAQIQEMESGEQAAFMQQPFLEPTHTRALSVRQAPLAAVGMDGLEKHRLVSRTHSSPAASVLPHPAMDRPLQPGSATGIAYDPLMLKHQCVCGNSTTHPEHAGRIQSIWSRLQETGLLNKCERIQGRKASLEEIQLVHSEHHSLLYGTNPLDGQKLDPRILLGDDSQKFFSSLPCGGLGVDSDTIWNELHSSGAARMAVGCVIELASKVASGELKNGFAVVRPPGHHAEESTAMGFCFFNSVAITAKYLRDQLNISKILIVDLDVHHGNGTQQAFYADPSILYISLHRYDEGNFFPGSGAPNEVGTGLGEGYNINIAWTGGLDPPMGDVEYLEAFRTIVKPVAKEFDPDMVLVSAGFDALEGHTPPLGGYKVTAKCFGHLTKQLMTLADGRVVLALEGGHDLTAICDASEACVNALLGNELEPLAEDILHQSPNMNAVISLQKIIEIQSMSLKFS
Chain of HDAC8 (Q9BY41 whole entry, species assumed): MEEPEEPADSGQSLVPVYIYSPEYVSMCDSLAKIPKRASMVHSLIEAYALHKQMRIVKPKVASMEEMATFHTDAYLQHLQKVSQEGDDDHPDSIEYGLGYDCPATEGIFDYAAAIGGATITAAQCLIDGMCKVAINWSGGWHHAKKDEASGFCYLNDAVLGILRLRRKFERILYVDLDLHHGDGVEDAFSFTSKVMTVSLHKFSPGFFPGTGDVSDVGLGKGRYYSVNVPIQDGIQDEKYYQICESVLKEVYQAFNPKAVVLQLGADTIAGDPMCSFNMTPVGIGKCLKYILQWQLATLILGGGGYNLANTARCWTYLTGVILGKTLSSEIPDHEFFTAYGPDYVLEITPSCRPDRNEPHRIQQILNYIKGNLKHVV
T4 sequence (Q92769 whole entry): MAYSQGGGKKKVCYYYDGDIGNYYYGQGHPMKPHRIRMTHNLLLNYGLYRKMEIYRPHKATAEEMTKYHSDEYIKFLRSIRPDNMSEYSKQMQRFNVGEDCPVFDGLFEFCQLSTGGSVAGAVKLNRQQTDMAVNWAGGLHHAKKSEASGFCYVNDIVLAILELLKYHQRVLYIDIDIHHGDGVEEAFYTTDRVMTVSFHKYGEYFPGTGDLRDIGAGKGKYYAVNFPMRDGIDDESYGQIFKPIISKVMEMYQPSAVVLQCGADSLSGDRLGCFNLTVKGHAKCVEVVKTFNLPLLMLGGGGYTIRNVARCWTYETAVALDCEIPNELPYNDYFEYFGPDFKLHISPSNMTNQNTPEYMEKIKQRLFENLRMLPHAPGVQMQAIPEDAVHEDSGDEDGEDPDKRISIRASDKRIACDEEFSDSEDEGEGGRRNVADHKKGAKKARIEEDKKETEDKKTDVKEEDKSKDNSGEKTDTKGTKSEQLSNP
T2 sequence (O15379 whole entry): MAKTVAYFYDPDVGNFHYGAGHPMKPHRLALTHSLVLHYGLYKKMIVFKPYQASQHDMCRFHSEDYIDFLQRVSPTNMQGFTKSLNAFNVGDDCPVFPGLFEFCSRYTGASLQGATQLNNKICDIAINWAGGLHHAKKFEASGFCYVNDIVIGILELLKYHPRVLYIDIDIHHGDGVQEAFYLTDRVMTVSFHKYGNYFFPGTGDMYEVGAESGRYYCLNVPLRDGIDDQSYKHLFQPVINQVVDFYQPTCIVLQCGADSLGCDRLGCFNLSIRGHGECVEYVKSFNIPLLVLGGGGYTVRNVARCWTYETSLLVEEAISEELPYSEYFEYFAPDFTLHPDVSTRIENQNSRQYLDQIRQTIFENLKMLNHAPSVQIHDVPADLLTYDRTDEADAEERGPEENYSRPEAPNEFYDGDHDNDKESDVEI
T2 sequence (Q9Y618 395-489 partner limits assumed): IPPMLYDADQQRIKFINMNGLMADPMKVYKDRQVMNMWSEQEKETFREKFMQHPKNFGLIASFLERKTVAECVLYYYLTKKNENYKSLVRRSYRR

Compound: CCCCN(Cc1ccc(C(=O)NO)cc1)C(=O)CCCCn1cc(COc2cccc(Cc3cnc(NC(=O)CSc4nc(C)cc(C)n4)s3)c2)nn1 [Compound 33, 4-((N-Butyl-5-(4-((3-((2-(2-((4,6-dimethylpyrimidin-2-yl)thio)acetamido)thiazol-5-yl)methyl)phenoxy)methyl)-1H-1,2,3-triazol-1-yl)pentanamido)methyl)-N-hydroxybenzamide]
- IC50 [1]: > 20 µM
- inhibition at 6 µM ([1]; @ 6 µM, read-out: HDAC9 percentual inhibition): 17%
- inhibition at 20 µM ([1]; @ 20 μM, read-out: HDAC9 percentual inhibition): 37%
- Rescue of HDAC6 from degradation induced by PROTAC 62 [2]: able to rescue HDAC6 from proteasomal degradation induced by 62
- IC50 [3]: 2.5 ± 0.2 µM
- IC50 [4]: > 20 µM
- inhibition at 6 µM ([4]; @ 6 µM, read-out: HDAC4 percentual inhibition): 4%
- inhibition at 20 µM ([4]; @ 20 μM, read-out: HDAC4 percentual inhibition): 7%
- IC50 [5]: 2.94 ± 0.45 µM
- IC50 [6]: > 500 µM
- inhibition at 200 µM ([6]; @ 200 µM, read-out: Sirt6 percentual inhibition): 0%
- inhibition at 500 µM ([6]; @ 500 µM, read-out: Sirt6 percentual inhibition): 10%
- IC50 [7]: > 500 µM
- inhibition at 200 µM ([7]; @ 200 µM, read-out: Sirt5 percentual inhibition): -2%
- inhibition at 500 µM ([7]; @ 500 µM, read-out: Sirt5 percentual inhibition): -1%
- IC50 [8]: 6 ± 0.2 µM
- IC50 [9]: > 6 µM
- inhibition at 6 µM ([9]; @ 6 µM, read-out: HDAC5 percentual inhibition): 18%
- inhibition at 20 µM ([9]; @ 20 μM, read-out: HDAC5 percentual inhibition): 57%
- IC50 [10]: > 6 µM
- inhibition at 6 µM ([10]; @ 6 µM, read-out: HDAC10 percentual inhibition): 27%
- inhibition at 20 µM ([10]; @ 20 μM, read-out: HDAC10 percentual inhibition): 64%
